One may read the melting point as the temperature, or range, at which the solid turns liquid.

These results are taken from patent US20100273831A1, “FLUORO ALKYL SUBSTITUTED BENZIMIDAZOLE CANNABINOID AGONISTS” (priority 2007, published 2010).

For data set [1], the target named is T1, human CB1 (hCB1) receptor (Homo sapiens, UniProt P21554).
T1 construct: expressed in transfected cells; host or cells: CHO-K1
The experiment in a line: Inhibition of forskolin-activated cAMP production upon activation of human CB1 receptor (HTRF assay, CHO-K1 cells). The class given is cell-based. Particulars: agonism; CHO-K1 cells stably transfected with hCB1; pEC50=-log(EC50); relative to CP55490; read-out: CB-1 pEC50 (converted). As for the experimental part:
(§1) Functional activity of the test compounds was assessed by measuring their potency to inhibit forskolin-activated cAMP production upon activation of the human CB1 (hCB1) or human CB2 (hCB2) receptor through homogenous time resolved fluorescence (HTRF) assays.
(§2) CHO-K1 cells stably transfected with either hCB1 or hCB2 were grown up to 80-90% confluence in T175 Falcon flasks in DMEM/NUT MIX F-12 culture medium complemented with 2% Solution A (5.10^6 IU/1 penicillin G, 5 g/l streptomycin sulphate, 5.5 g/l pyruvate, 14.6 g/l L-glutamine, 1M NaOH) and 10% foetal calf serum. Before the experiments, medium was removed, cells were washed with PBS/EDTA (140 mM NaCl, 1 mM Na2-EDTA, 8 mM Na2HPO4.2H2O, 8.5 mM KH2PO4, 2.7 mM KCl, 21 mM glucose), resuspended in stimulation buffer (HBSS 1×, IBMX 1 mM, Hepes 5 mM, MgCl2 10 mM, BSA 0.1%, pH 7.4). Cells were diluted to a concentration of 8.10^5 cell/ml for hCB1 experiments and 10^6 cells/ml for hCB2 experiments. Assays were performed using the cAMP Dynamic HTRF kit (CIS bio international, France) according to the recommendations of the manufacturer.
For CB1, each well of a 96 flat bottom black polystyrene assay plate (Costar) was filled with 25 μl stimulation buffer containing 6 μM forskolin and either test compound (in 2% DMSO), 2% DMSO or 2 μM CP55490 (in 2% DMSO). Then, 25 μl of the diluted cells was added (20,000 cells/well). After 30 minutes incubation in dark at room temperature, 25 μl cAMP-XL665 and 25 μl anti-cAMP cryptate (both at a final dilution of 1/80) was added to the cells.
(§3) After equilibration of the reaction mixtures for 1 to 24 hours in dark at room temperature, fluorescence was measured at 665 nm and 620 nm using a Discovery microplate fluorescence counter (Perkin Elmer), and the signal ratio of 665 nm/620 nm was calculated. The signal ratios of the test compounds were expressed relative to the signal ratios of the DMSO control (maximal signal ratio, no inhibition of cAMP) and CP55490 or WIN55212-2 for hCB1 and hCB2, respectively (minimal signal ratio, maximal inhibition of cAMP). From the dose response curves generated for each test compound, the dose at which 50% of the maximal inhibition of cAMP level is observed (EC50, expressed in the Tables as pEC50=−log(EC50) values) and the level of inhibition reached with 10 μM of the test compound compared to CP55490 (for hCB1) or WIN55212-2 (for hCB2) was calculated.

Data set [2] deals with T2, human CB2 (hCB2) receptor (Homo sapiens, UniProt P34972).
T2 construct: expressed in transfected cells; host or cells: CHO-K1
T2 sequence (P34972 whole entry): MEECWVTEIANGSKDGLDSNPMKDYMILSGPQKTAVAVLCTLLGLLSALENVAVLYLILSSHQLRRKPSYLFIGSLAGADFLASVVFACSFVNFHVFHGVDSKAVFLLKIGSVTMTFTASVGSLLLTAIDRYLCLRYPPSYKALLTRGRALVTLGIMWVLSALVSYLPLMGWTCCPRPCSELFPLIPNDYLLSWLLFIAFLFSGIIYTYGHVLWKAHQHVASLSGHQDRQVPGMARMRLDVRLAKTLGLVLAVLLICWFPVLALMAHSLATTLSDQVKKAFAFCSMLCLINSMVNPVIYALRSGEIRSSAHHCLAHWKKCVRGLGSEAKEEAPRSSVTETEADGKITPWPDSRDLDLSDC
The experiment in a line: Inhibition of forskolin-activated cAMP production upon activation of human CB2 receptor (HTRF assay, CHO-K1 cells). It counts as cell-based. Particulars: agonism; CHO-K1 cells stably transfected with hCB2; pEC50=-log(EC50); relative to WIN55212-2; read-out: CB-2 pEC50 (converted). As for the experimental part:
as §1, §2
For CB2, each well of a 384 flat bottom black polystyrene assay plate (Costar) was filled with 10 μl stimulation buffer containing 15 μM forskolin and either test compound (in 3% DMSO), 3% DMSO or 10 μM Win55212-2 (in 3% DMSO). Then, 20 μl of the diluted hCB2-CHO-K1 cells was added (20,000 cells/well). After 30 minutes incubation in dark at room temperature, 10 μl cAMP-XL665 and 10 μl anti-cAMP cryptate (both at a final dilution of 1/100) was added to the cells.
as §3

T1 sequence (P21554 whole entry): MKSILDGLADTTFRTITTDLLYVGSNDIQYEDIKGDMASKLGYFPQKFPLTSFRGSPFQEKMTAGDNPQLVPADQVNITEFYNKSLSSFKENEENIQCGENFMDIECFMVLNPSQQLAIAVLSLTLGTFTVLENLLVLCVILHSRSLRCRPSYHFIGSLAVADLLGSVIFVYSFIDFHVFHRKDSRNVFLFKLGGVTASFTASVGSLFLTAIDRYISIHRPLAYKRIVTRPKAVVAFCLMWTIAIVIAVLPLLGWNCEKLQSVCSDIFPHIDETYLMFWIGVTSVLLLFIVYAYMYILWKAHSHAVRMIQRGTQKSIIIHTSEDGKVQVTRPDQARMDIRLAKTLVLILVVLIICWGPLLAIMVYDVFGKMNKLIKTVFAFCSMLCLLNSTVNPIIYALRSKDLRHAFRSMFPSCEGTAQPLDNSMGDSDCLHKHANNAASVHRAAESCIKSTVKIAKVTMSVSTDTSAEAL

With `CC(C)(C)c1nc2cc(S(=O)(=O)Cc3ccc(C#N)cc3)ccc2n1CCCCC(F)(F)F`, the melting point was 177.4 °C.

With `CC(C)(C)c1nc2cc(S(=O)(=O)c3ccncc3)ccc2n1CCCC(F)(F)F`, the melting point stood at 155.4 °C.

Regarding `CC(C)(C)c1nc2cc(S(=O)(=O)c3ccncc3)ccc2n1CCCCC(F)(F)F` [compound 13], the melting point is 147.6 °C. Besides, the EC50 in data set [1] was 200 nM. The EC50 in data set [2] is 1.58 nM.

`CC(C)(C)c1nc2cc(S(=O)(=O)c3ccc(C(N)=O)cc3)ccc2n1CCCC(F)(F)F` [compound 18]: the values for the EC50 in data set [1] and in data set [2] were 2000 nM and 3.16 nM, respectively.

`CC(C)(C)c1nc2cc(S(=O)(=O)C3CCNC3=O)ccc2n1CCCC(F)(F)F` (stereo not drawn) [compound 16]: the EC50 in data set [1] is 3980 nM; in data set [2], 2.51 nM.

For `CC(C)(C)c1nc2cc(Sc3ccc(C#N)cc3)ccc2n1CCCC(F)(F)F` [compound 9], the EC50 in data set [1] was 25.1 nM; in data set [2], 1 nM.

Take `CC(C)(C)c1nc2cc(S(=O)(=O)CC3CC3)ccc2n1CCCC(F)(F)F` [compound 3]: the EC50 in data set [1] was 316 nM; in data set [2], 1.26 nM.

In the case of `CC(C)(C)c1nc2cc(Sc3cn[nH]c3)ccc2n1CCCC(F)(F)F` [compound 8], the EC50 is more than 10000 nM in data set [1] and 0.631 nM in data set [2].

Take `CC(C)(C)c1nc2cc(S(=O)(=O)C(F)(F)c3ccc(C#N)cc3)ccc2n1CCCCC(F)(F)F` [compound 21]: the figures for the EC50 in data set [1] and in data set [2] were 79.4 nM and 3.16 nM, respectively.

For `CC(C)(C)c1nc2cc(S(=O)(=O)Cc3ccc(C#N)cc3)ccc2n1CCCCC(F)(F)F` [compound 19], the values for the EC50 in data set [1] and in data set [2] were more than 10000 nM and 2 nM, respectively.

For the molecule `CC(C)(C)c1nc2cc(S(=O)(=O)c3ccc(C(N)=O)cc3)ccc2n1CCCC(F)(F)F`, the melting point amounted to 207.8 °C.

For `CC(C)(C)c1nc2cc(S(=O)(=O)c3ccc(C#N)cc3)ccc2n1CCCC(F)(F)F`, the melting point came out at 165.1 °C.

On to `CC(C)(C)c1nc2cc([S+]([O-])c3ccc(C#N)cc3)ccc2n1CCCC(F)(F)F` (stereo not drawn) [compound 7], for which the EC50 is more than 10000 nM in data set [1] and 2.51 nM in data set [2].

As to `COc1ccc(CSc2ccc3c(c2)nc(C(C)(C)C)n3CCCCC(F)(F)F)cc1` [compound 10], the results for the EC50 in data set [1] and in data set [2] were more than 10000 nM and 6.31 nM, respectively.

Take `CC(C)(C)c1nc2cc(S(=O)(=O)Cc3ccc(C(N)=O)cc3)ccc2n1CCCCC(F)(F)F` [compound 22]: the melting point stood at 222.8 °C. In addition, the EC50 in data set [1] is 79.4 nM. For the same molecule, the EC50 in data set [2] was 2 nM.

For `COc1ccc(CSc2ccc3c(c2)nc(C(C)(C)C)n3CCCC(F)(F)F)cc1`, the melting point came out at 143.2 °C.

As for `CC(C)(C)c1nc2cc(S(=O)(=O)C3CCNC3=O)ccc2n1CCCC(F)(F)F` (stereo not drawn), the melting point was 208.7 °C.

Regarding `CC(C)(C)c1nc2cc(S(=O)(=O)C3CCNC3=O)ccc2n1CCCCC(F)(F)F` (stereo not drawn) [compound 23], the EC50 in data set [1] was 1580 nM; in data set [2] it was 5.01 nM.

In the case of `CC(C)(C)c1nc2cc(S(=O)(=O)c3ccncc3)ccc2n1CCCC(F)(F)F` [compound 4], the EC50 in data set [1] was 2510 nM; in data set [2], 0.398 nM.

`CC(C)(C)c1nc2cc(S(=O)(=O)c3ccc(C#N)cc3)ccc2n1CCCC(F)(F)F` [compound 6]: the EC50 in data set [1] was 79.4 nM; in data set [2], 0.398 nM.

On to `CC(C)(C)c1nc2cc(S(=O)(=O)c3ccc(C#N)cc3)ccc2n1CCCCC(F)(F)F` [compound 12], for which the melting point was determined as 180.1 °C. In data set [1], the EC50 is 25.1 nM. In addition, the EC50 in data set [2] was 1 nM.

`CC(C)(C)c1nc2cc(S(=O)(=O)C(C)(C)c3ccc(C#N)cc3)ccc2n1CCCCC(F)(F)F` showed a melting point of 187.6 °C.

Regarding `CC(C)(C)c1nc2cc(S(=O)(=O)CC3CC3)ccc2n1CCCCC(F)(F)F` [compound 11], the EC50 in data set [1] was 31.6 nM; in data set [2], 1.58 nM.

Molecule `CC(C)(C)c1nc2cc(S(=O)(=O)c3cn[nH]c3)ccc2n1CCCC(F)(F)F` [compound 5] came in with a melting point of 220.8 °C. Besides, the EC50 in data set [1] was 1260 nM. For the same molecule, in data set [2], the EC50 was 0.794 nM.

In the case of `COc1ccc(CSc2ccc3c(c2)nc(C(C)(C)C)n3CCCC(F)(F)F)cc1` [compound 1], the values for the EC50 in data set [1] and in data set [2] were more than 10000 nM and 5.01 nM, respectively.

On to `CC(C)(C)c1nc2cc(SCC3CC3)ccc2n1CCCCC(F)(F)F` [compound 14], for which the EC50 was 10 nM in data set [1] and 2 nM in data set [2].

`CC(C)(C)c1nc2cc(S(=O)(=O)C(C)(C)c3ccc(C#N)cc3)ccc2n1CCCCC(F)(F)F` [compound 20]: the figures for the EC50 in data set [1] and in data set [2] were 2000 nM and 1.58 nM, respectively.
